The record followed here is patent US12528790B2, “Amide derivative having antiviral activity” (Shionogi & Co., Ltd., priority 2020, dated 2026).

Test [1] relates to RSV A2 strain. As to the kind of experiment: In vitro CPE (CytoPathic Effect) inhibition effect evaluation test, RSV type A. Type of test: cell-based. Put shortly:
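EC50 is the concentration giving 50% inhibition of virus-induced cytopathic effect, fitted by nonlinear regression from CellTiter-Glo 2.0 viability. Compounds in 3-fold series were co-incubated at 37 °C with HEp-2 cells and RSV: A2 strain for 4 days, B (Wash/18537) for 5 days; uninfected wells served as control.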

The subject of test [2] is RSV B (Wash/18537 strain). As to the kind of experiment: In vitro CPE (CytoPathic Effect) inhibition effect evaluation test, RSV type B. In kind it is cell-based. How it is done: The test sample is diluted in advance to an appropriate concentration with DMSO, and 3-fold series of serial dilutions were prepared on a 384-well plate (0.32 μL/well). HEp-2 cells (CCL-23; ATCC) adjusted at appropriate number (2.4×10^5 cells/mL) in 2% FBS E-MEM (prepared by adding kanamycin and FBS to Eagle's Minimum Essential Medium; Invitrogen) were added at 12.5 μL/well to the 384-well plate previously aliquoted with the test samples. The RSV A2 strain was diluted to an appropriate concentration in a culture medium and added to the 384-well plate containing the test sample at 12.5 μL/well. The culture medium was added additionally to the 384-well plate, and the test was started with 50 μL/well. Control wells were prepared with only virus-free culture medium. The plate was incubated in a 5% CO2 incubator at 37° C. for 4 days, and the plate was then placed at room temperature for 30 minutes. CellTiter-Glo (registered trademark) 2.0 assay (Promega) was added at 15 μL/well, mixed for 30 seconds, and the plate was placed for approximately 1 hour. The luminescent signal was then measured by EnVision (PerkinElmer). The inhibitory effect of the test agents on RSV-induced CPE was calculated as 0% and 100% inhibition rate for each sample concentration based on the level of remaining viable cells by CellTiter-Glo (registered trademark) 2.0, with the EC50 value for each compound calculated by nonlinear regression as the concentration that inhibits RSV-induced CPE by 50%. In the case of evaluation against RSV type B, RSV B (Wash/18537 strain) was infected in the same manner as the type A, cultured for 5 days, and quantitated in the same manner as for the A2 strain.

Where [3] appears, read: human respiratory syncytial virus, inhibitory effect against RSV type A (RSV A2 strain), HEp-2 cells, CPE inhibition, read-out: EC50.
The mark [4] stands for this setting: human respiratory syncytial virus, inhibitory effect against RSV type B, CPE inhibition, read-out: EC50.
[5] abbreviates: human respiratory syncytial virus, HEp-2, 96 h, read-out: EC50, inhibitory effect against RSV type A (CPE inhibition).
The mark [6] stands for this setting: human respiratory syncytial virus, HEp-2, 120 h, HEp-2 cells, RSV B (Wash/18537 strain), 5 days, CellTiter-Glo, read-out: EC50, inhibitory effect against RSV type B (CPE inhibition).
Where [7] appears, read: inhibitory effect against RSV type A (RSV A2 strain), HEp-2 cells, CPE inhibition, read-out: EC50.
Setting [8] is: inhibitory effect against RSV type B, CPE inhibition, read-out: EC50.

Structures are written as SMILES. Where two headings read alike, the source gives them in different places.

Turning to `COC[C@@H](C)n1cc(-c2ncc(C(=O)NC3(C(=O)O)C4CC5CC(C4)CC3C5)c(C(C)(F)F)n2)c2ccc(OC3CC(N4CC(F)(F)C4)C3)cc21` (stereo partly drawn) [Compound I-620], the EC50 in test [1] (setting [3]) and in test [2] (setting [4]) was below 10 nM each time.
`O=C(NC1(C(=O)O)C2CC3CC(C2)CC1C3)c1cnc(-c2cn(-c3ccccn3)c3cc(OC4CCN(c5ncc(F)cn5)CC4)ccc23)nc1C(F)(F)F` (stereo not drawn) [Compound I-447]: the EC50 in test [1] (setting [3]) and in test [2] (setting [4]) was below 10 nM in each case.
For the compound `O=C(NC1(C(=O)O)C2CC3CC(C2)CC1C3)c1cnc(N2CC3(CCCCC3)c3cc(C(=O)N4CCN(c5ncc(F)cn5)CC4)ccc32)nc1C(F)(F)F` (stereo not drawn) [Compound I-504], the concentration giving a half-maximal response (EC50) in test [1] (setting [3]) and in test [2] (setting [4]) was below 10 nM each time.
On to `O=C(NC1(C(=O)O)CCCCC1)c1cnc(N2CCc3cc(OCCC4CCOCC4)ccc32)nc1C(F)(F)F` [Compound I-8], for which the EC50 in test [1] (setting [3]) and in test [2] (setting [4]) was 10 to 100 nM in each case.
In the case of `O=C(NC1(C(=O)O)C2CC3CC(C2)CC1C3)c1cnc(N2CC3(CCCCC3)c3cc(CN4CCN(c5ncccn5)CC4)ccc32)nc1C(F)(F)F` (stereo not drawn) [Compound I-463], the EC50 in test [1] (setting [3]) was below 10 nM; in test [2] (setting [4]), 100 to 5000 nM.
Taken in the same sequence, the figures for `O=C(NC1(C(=O)O)C2CC3CC(C2)CC1C3)c1cnc(N2CC3(CCOCC3)c3cc(C(=O)N4CC(F)(F)C4)ccc32)nc1C(F)(F)F` (stereo not drawn) [Compound I-491] were below 10 nM and 10 to 100 nM.
For `CC(F)(F)c1nc(N2CC3(CCCCC3)c3cc(OC4CCN(c5ncc(F)cn5)CC4)ccc32)ncc1C(=O)NC1(C(=O)O)C2CC3CC(C2)CC1C3` (stereo not drawn) [Compound I-396], in that order: below 10 nM and below 10 nM.
For `CC(F)(F)c1nc(N2CC3(CCCCC3)c3cc(OC4CCN(CC(F)(F)F)CC4)ccc32)ncc1C(=O)NC1(C(=O)O)C2CC3CC(C2)CC1C3` (stereo not drawn) [Compound I-440], in that order: below 10 nM and 10 to 100 nM.
In the case of `O=C(NC1(C(=O)O)C2CC3CC(C2)CC1C3)c1cnc(-c2cn(C3CCC(F)(F)CC3)c3cc(O[C@H]4CC[C@@H](N5CC(F)(F)C5)CC4)ccc23)nc1C(F)(F)F` (stereo partly drawn) [Compound I-415], the EC50 in test [1] (setting [3]) and in test [2] (setting [4]) was below 10 nM each time.
In the case of `O=C(NC1(C(=O)O)C2CC3CC(C2)CC1C3)c1cnc(-c2cn(C3CCC(F)(F)CC3)c3cc(OC4CCN(c5ncc(F)cn5)CC4)ccc23)nc1C(F)(F)F` (stereo not drawn) [Compound I-237], the EC50 in test [1] (setting [3]) and in test [2] (setting [4]) was below 10 nM throughout.
Take `CC(F)(F)c1nc(N2CC3(CCOCC3)c3cc(O[C@H]4CC[C@H](N5CC(F)(F)C5)CC4)ncc32)ncc1C(=O)NC1(C(=O)O)C2CC3CC(C2)CC1C3` (stereo partly drawn) [Compound I-594]: the EC50 in test [1] (setting [5]) came to 0.38 nM; in test [2] (setting [6]) it was 4.2 nM.
`O=C(NC1(C(=O)O)C2CC3CC(C2)CC1C3)c1ccc(-c2cn(-c3ccccn3)c3cc(OC4CCN(c5ncccn5)CC4)ccc23)nc1C(F)(F)F` (stereo not drawn) [Compound I-175]: the EC50 in test [1] (setting [3]) and in test [2] (setting [4]) was below 10 nM in each case.
Turning to `O=C(NC1(C(=O)O)C2CC3CC(C2)CC1C3)c1ccc(-c2cn(S(=O)(=O)C3CC3)c3cc(OC4CCN(c5ncccn5)CC4)ccc23)nc1C(F)(F)F` (stereo not drawn) [Compound I-272], the values for the EC50 in test [1] (setting [3]) and in test [2] (setting [4]) were below 10 nM and 10 to 100 nM, respectively.
Turning to `Cc1ccc2c(c1)C1(CCOCC1)CN2c1ncc(C(=O)NC2(C(=O)O)C3CC4CC(C3)CC2C4)c(C(F)(F)F)n1` (stereo not drawn) [Compound I-109], the EC50 in test [1] (setting [7]) is below 10 nM; in test [2] (setting [8]), 10 to 100 nM.
In the case of `COC1CC(n2cc(-c3ccc(C(=O)NC4(C(=O)O)C5CC6CC(C5)CC4C6)c(C(F)(F)F)n3)c3ccc(OC4CCN(c5ncccn5)CC4)cc32)C1` (stereo not drawn) [Compound I-250], the EC50 in test [1] (setting [3]) and in test [2] (setting [4]) was below 10 nM throughout.
On to `CC(F)(F)c1nc(N2CC3(CCCCC3)c3cc(OC4CCC5(CC4)COC5)ccc32)ncc1C(=O)NC1(C(=O)O)C2CC3CC(C2)CC1C3` (stereo not drawn) [Compound I-401], for which the EC50 was below 10 nM in test [1] (setting [3]) and 10 to 100 nM in test [2] (setting [4]).
For `O=C(NC1(C(=O)O)C2CC3CC(C2)CC1C3)c1cnc(-c2cn(C3CCC(F)(F)CC3)c3cc(OC4CC(N5CC(F)(F)C5)C4)ccc23)nc1C(F)(F)F` (single isomer, unassigned) [Compound I-413], the EC50 is below 10 nM in test [1] (setting [7]) and 10 to 100 nM in test [2] (setting [8]).
In the case of `O=C(NC1(C(=O)O)C2CC3CC(C2)CC1C3)c1cnc(-c2cn(C3CCC(F)(F)CC3)c3cc(-n4ncc5c4CCN(CC(F)(F)F)C5)ccc23)nc1C(F)(F)F` (stereo not drawn) [Compound I-573], the EC50 in test [1] (setting [3]) and in test [2] (setting [4]) was below 10 nM in each case.
For `O=C(NC1(C(=O)O)C2CC3CC(C2)CC1C3)c1cnc(N2CCc3cc(OCCN4CCOCC4)ccc32)nc1C(F)(F)F` (stereo not drawn) [Compound I-31], the EC50 in test [1] (setting [3]) was below 10 nM; in test [2] (setting [4]), 10 to 100 nM.
For `O=C(NC1(C(=O)O)C2CC3CC(C2)CC1C3)c1ccc(-c2cn(C3CCC(F)CC3)c3cc(OC4CCN(c5ncc(F)cn5)CC4)ccc23)nc1C(F)(F)F` (single isomer, unassigned) [Compound I-397], in that order: below 10 nM and below 10 nM.
Taken in the same sequence, the figures for `CC(F)(F)c1nc(N2CC3(CCOCC3)c3cc(O[C@@H]4CCN(c5ncc(F)cn5)C4)ccc32)ncc1C(=O)NC1(C(=O)O)C2CC3CC(C2)CC1C3` (stereo partly drawn) [Compound I-560] were below 10 nM and below 10 nM.
Consider `O=C(NC1(C(=O)O)C2CC3CC(C2)CC1C3)c1cnc(N2CC3(CCCCC3)c3cc(OC4CCC(=NOC5CC(F)(F)C5)CC4)ccc32)nc1C(F)(F)F` (racemic) [Compound I-475], for which the EC50 is below 10 nM in test [1] (setting [7]) and 10 to 100 nM in test [2] (setting [8]).
As to `O=C(NC1(C(=O)O)C2CC3CC(C2)CC1C3)c1cnc(-c2cn(C3CCOCC3)c3cc(OC4CCN(c5ncccn5)CC4)ccc23)nc1C(F)(F)F` (stereo not drawn) [Compound I-146], the EC50 in test [1] (setting [3]) and in test [2] (setting [4]) was below 10 nM in each case.
Consider `C/C(=N\OC1CCC(F)(F)CC1)c1ccc2c(c1)C1(CCCCC1)CN2c1ncc(C(=O)NC2(C(=O)O)C3CC4CC(C3)CC2C4)c(C(F)(F)F)n1` (single isomer, unassigned) [Compound I-476], for which the EC50 was in the range of 10 to 100 nM in test [1] (setting [3]) and 100 to 5000 nM in test [2] (setting [4]).
Taken in the same sequence, the figures for `O=C(NC1(C(=O)O)C2CC3CC(C2)CC1C3)c1cnc(N2CC3(CCCCC3)c3cc(OC4CCN(c5ncco5)CC4)ccc32)nc1C(F)(F)F` (stereo not drawn) [Compound I-519] were below 10 nM and below 10 nM.
Consider `O=C(NC1(C(=O)O)C2CC3CC(C2)CC1C3)c1cnc(-c2c3ccc(OC4CCN(c5ncccn5)CC4)cc3nn2C2CCOCC2)nc1C(F)(F)F` (stereo not drawn) [Compound I-182], for which the figures for the EC50 in test [1] (setting [5]) and in test [2] (setting [6]) were 0.39 nM and 2.1 nM, respectively.
For `COc1cccc(COc2ccc3c(c2)CCN3c2ncc(C(=O)NC3(C(=O)O)C4CC5CC(C4)CC3C5)c(C(F)(F)F)n2)c1` (stereo not drawn) [Compound I-21], the values for the EC50 in test [1] (setting [3]) and in test [2] (setting [4]) were below 10 nM and 10 to 100 nM, respectively.
Take `O=C(NC1(C(=O)O)C2CC3CC(C2)CC1C3)c1cnc(-c2cn(C3CCC(F)(F)CC3)c3cc(O[C@H]4CC[C@H](N5CC(F)(F)C5)CC4)ccc23)nc1C(F)(F)F` (stereo partly drawn) [Compound I-545]: the EC50 in test [1] (setting [3]) and in test [2] (setting [4]) was below 10 nM in each case.
Take `COC1CCC(n2cc(-c3ncc(C(=O)NC4(C(=O)O)C5CC6CC(C5)CC4C6)c(C(F)(F)F)n3)c3ccc(OC4CCN(c5ncc(F)cn5)CC4)cc32)CC1` (single isomer, unassigned) [Compound I-423]: the EC50 in test [1] (setting [3]) and in test [2] (setting [4]) was below 10 nM each time.
In the case of `O=C(NC1(C(=O)O)C2CC3CC(C2)CC1C3)c1cnc(N2CC3(CCCCC3)c3cc(OC4CCN(c5cnccn5)CC4)ccc32)nc1C(F)(F)F` (stereo not drawn) [Compound I-523], the EC50 in test [1] (setting [3]) and in test [2] (setting [4]) was below 10 nM each time.
On to `O=C(NC1(C(=O)O)C2CC3CC(C2)CC1C3)c1ccc(-c2nn(C3CCOCC3)c3cc(OC4CCN(c5ncccn5)CC4)ccc23)nc1C(F)(F)F` (stereo not drawn) [Compound I-158], for which the EC50 in test [1] (setting [3]) and in test [2] (setting [4]) was below 10 nM in each case.
As to `CCC(CC)n1cc(-c2ncc(C(=O)NC3(C(=O)O)C4CC5CC(C4)CC3C5)c(C(F)(F)F)n2)c2ccc(O[C@H]3CC[C@H](N4CC(F)(F)C4)CC3)cc21` (stereo partly drawn) [Compound I-496], the EC50 in test [1] (setting [3]) and in test [2] (setting [4]) was below 10 nM in each case.
In the case of `CC(F)(F)c1nc(N2CC3(CCCCC3)c3cc(O[C@H]4CC[C@H](N5CC(F)(F)C5)CC4)ccc32)ncc1C(=O)NC1(C(=O)O)C2CC3CC(C2)CC1C3` (stereo partly drawn) [Compound I-443], the 50% effective concentration (EC50) in test [1] (setting [3]) and in test [2] (setting [4]) was below 10 nM each time.
